Patent US20240009150A1, “CAPSAICYNS IN THE TREATMENT OF LEAKY GUT” (AXICHEM AB [SE]/[SE], priority 2020, published 2024)

Test system: Salmonella enterica subsp. enterica serovar Paratyphi C (ATCC® BAA1714™)
Experiment: Inhibition of biofilm formation with different capsaicyn compounds, crystal violet staining assay (Example 6)
Assay type: cell-based
Conditions: for Biofilm (OD 595 nm): 24 hr, 30° C.
Procedure: Biofilm formation was quantified with modifications using the method described by Stepanovic et al. (Journal of Microbiological Methods, 2000, 40(2), 175-19) with modifications. Using a 96-well microplate duplicate the test solutions were filled at the above selected doses. Cultures were grown for 18 hr in LB at 30° C. and adjusted to OD 0.1 at 600 nm. 20 μL of the culture were added into each well and the remainder of the volume to 200 μL per well was filled with LB. Unused external wells were filled with 200 μL of sterile water to prevent evaporation.
After 24 hr of incubation, supernatants were discarded, and the wells were washed three times with 200 μL of sterile phosphate buffered saline (PBS). Bacteria adhered to the wells were fixed with 200 μL of methanol for 15 min, the methanol was discarded, and the plates dried at 25° C.
Each well was stained with 200 μL of 0.3% (w/v) crystal violet solution for 5 min at 25° C. Crystal violet excess was pipetted out, and the wells were rinsed five times with sterile PBS. 200 μL of 33% (v/v) glacial acetic acid were added to the wells for 30 min to solubilise the dye adhered to the cell walls. Optical density (OD) was measured at 595 nm using a microplate spectrophotometer as a direct measure of biofilm formation. P. aeruginosa in 3% DMSO will be used as the negative control.
A stock solution of 500 μg of phenylcapsaicin, capsaicin, compound a, compound b, compound c, was prepared by dissolving 500 μg in 100 μl of ethanol and 900 μl of sterile water. The stock solutions were sequentially diluted with quadruple volumes of solvent (10% aqueous ethanol solution) to yield 125/31.25 (32)/7.81 (8)/1.95 (2) μg/ml test solutions.
ATCC® BAA1714™ was used to determine the biofilm inhibition activity. Inducer N-hexanoyl homoserine lactone (C6-HSL) was purchased from Sigma-Aldrich. ATCC® BAA1714™ was cultivated in Luria-Bertani (LB) medium (LB, 5 g yeast extract, 10 g tryptone, 5 g NaCl, 1 L water) at 37° C. overnight under aerobic conditions.
Crystal violet staining assay was performed as in Experiment 3, using ATCC® BAA1714™ in 3% DMSO as the control.

[1] = any dose tested (125, 32, 8, 2 μg/ml)

Row | Compound | Biofilm (OD 595 nm) (2 μg/mL) | biofilm formation inhibition activity relative to the activity of phenylcapsaicin (2 μg/ml dose) [%] | biofilm formation inhibition activity, in words (2 μg/ml dose) | Biofilm (OD 595 nm) (8 μg/mL) | Biofilm (OD 595 nm) (32 μg/mL) | Biofilm (OD 595 nm) (125 μg/mL) | biofilm formation inhibition activity, in words [1]
1 | COc1cc(CNC(=O)CCCCC#CC2CCCCC2)ccc1O [compound a] | 6.5 | ~33 | modest biofilm formation inhibition activity | 6.8 | 7.1 | 8.2 | –
2 | COc1cc(CNC(=O)CCCCC#CC(C)(C)C)ccc1O [compound b] | 8.1 | – | – | 7.9 | 8.2 | 8.8 | did not show biofilm formation inhibition activity
3 | COc1cc(CNC(=O)CCCCC#CC(C)(C)C)ccc1OC(C)=O [compound c] | 8.0 | – | – | 8.6 | 8.5 | 8.7 | did not show biofilm formation inhibition activity
